≈ marks a conversion by molar mass, not a printed value. Where two headings read alike, the source gives them in different places. Positions of bridges follow the written chain, without caps; N, C: chain ends. Residues, ends and D or L forms follow the SMILES beside them.
Columns and labels:
[1] = system: methicillin resistant Staphylococcus aureus (MRSA); assay: microbe, parasite or virus in culture; details: 17 h
[2] = system: methicillin resistant Staphylococcus aureus (MRSA); details: for MIC: MRSA growth after 17 h at 37° C., LB medium, absorbance at 600 nm, triplicate

| Structure (SMILES) | MIC [1] | MIC [2] | improvement of the antimicrobial activity ([2]; MRSA MIC analysis, worded as 'even in comparison to' trimethoprim (TMP)) | enhanced activity relative to the wild type plectasin ([2]; MRSA MIC, relative to wild type plectasin) |
| --- | --- | --- | --- | --- |
| COc1cc(Cc2cnc(N)nc2N)cc(OC)c1OC [TMP, trimethoprim] | 2 µM (≈ 0.581 µg/mL) | – | – | – |
| CC[C@H](C)[C@@H]1NC(=O)[C@H](CO)NC(=O)[C@H](CCCCN)NC(=O)[C@@H]2CSSC[C@@H](C(=O)N[C@@H](Cc3ccc(O)cc3)C(N)=O)NC(=O)[C@H](CCCCN)NC(=O)[C@@H]3CSSC[C@H](NC(=O)[C@H](CCC(N)=O)NC(=O)[C@H](CCSC)NC(=O)[C@H](CC(=O)O)NC(=O)[C@H](CC(=O)O)NC(=O)[C@H](CCC(=O)O)NC(=O)[C@H](CC(=O)O)NC(=O)[C@H](Cc4c[nH]c5ccccc45)NC(=O)[C@@H]4CCCN4C(=O)CNC(=O)[C@H](CC(N)=O)NC(=O)[C@@H](NC(=O)CNC(=O)[C@H](Cc4ccccc4)NC(=O)CN)CSSC[C@H](NC(=O)[C@H](Cc4ccc(O)cc4)NC(=O)CNC(=O)CNC(=O)[C@H](CCCCN)NC(=O)[C@H](Cc4ccc(O)cc4)NC(=O)CNC(=O)[C@H](CCCCN)NC1=O)C(=O)N[C@@H](C)C(=O)N[C@@H](CCCCN)C(=O)NCC(=O)NCC(=O)N[C@@H](Cc1ccccc1)C(=O)N[C@@H](C(C)C)C(=O)N3)C(=O)N[C@@H](Cc1c[nH]cn1)C(=O)N[C@@H](CC(N)=O)C(=O)N[C@@H](Cc1c[nH]cn1)C(=O)N2 [plectasin WT, plectasin, reference compound] | – | 5 µM (≈ 22 µg/mL) | – | – |
| CC[C@H](C)[C@@H]1NC(=O)[C@H](CO)NC(=O)[C@H](CCCCN)NC(=O)[C@@H]2CSSC[C@@H](C(=O)N[C@@H](Cc3ccc(O)cc3)C(N)=O)NC(=O)[C@H](CCCCN)NC(=O)[C@@H]3CSSC[C@H](NC(=O)[C@H](CCC(N)=O)NC(=O)[C@H](C)NC(=O)[C@H](CC(=O)O)NC(=O)[C@H](CC(=O)O)NC(=O)[C@H](CCC(=O)O)NC(=O)[C@H](CC(=O)O)NC(=O)[C@H](Cc4c[nH]c5ccccc45)NC(=O)[C@@H]4CCCN4C(=O)CNC(=O)[C@H](CC(N)=O)NC(=O)[C@@H](NC(=O)CNC(=O)[C@H](Cc4ccccc4)NC(=O)CN)CSSC[C@H](NC(=O)[C@H](Cc4ccc(O)cc4)NC(=O)CNC(=O)CNC(=O)[C@H](CCCCN)NC(=O)[C@H](Cc4ccc(O)cc4)NC(=O)CNC(=O)[C@H](CCCCN)NC1=O)C(=O)N[C@@H](C)C(=O)N[C@@H](CCCCN)C(=O)NCC(=O)NCC(=O)N[C@@H](Cc1ccccc1)C(=O)N[C@@H](C(C)C)C(=O)N3)C(=O)N[C@@H](Cc1c[nH]cn1)C(=O)N[C@@H](CC(N)=O)C(=O)N[C@@H](Cc1c[nH]cn1)C(=O)N2 [plectasinMet13Ala] (H-GFGCNGPWDEDDAQCHNHCKSIKGYKGGYCAKGGFVCKCY-NH2; disulfide 4-30, 15-37, 19-39; N-terminus assumed) | – | 1.25 µM (≈ 5.43 µg/mL) | four-fold | four-fold |
